# Laboratory results reported in patent US9486524B2, “Composition for eliciting a specific CTL response, comprising a lympho-ablative compound and a molecule that contains antigenic sequences and targets professional antigen presenting cells” (priority 2006, dated 2016).
# B1: His-Tag-CEA: histidine-tagged full length CEA protein, used as control, formulated with CpG (protein, UniProt P06731 1-702, looked up)
# chain: MESPSAPPHRWCIPWQRLLLTASLLTFWNPPTTAKLTIESTPFNVAEGKEVLLLVHNLPQHLFGYSWYKGERVDGNRQIIGYVIGTQQATPGPAYSGREIIYPNASLLIQNIIQNDTGFYTLHVIKSDLVNEEATGQFRVYPELPKPSISSNNSKPVEDKDAVAFTCEPETQDATYLWWVNNQSLPVSPRLQLSNGNRTLTLFNVTRNDTASYKCETQNPVSARRSDSVILNVLYGPDAPTISPLNTSYRSGENLNLSCHAASNPPAQYSWFVNGTFQQSTQELFIPNITVNNSGSYTCQAHNSDTGLNRTTVTTITVYAEPPKPFITSNNSNPVEDEDAVALTCEPEIQNTTYLWWVNNQSLPVSPRLQLSNDNRTLTLLSVTRNDVGPYECGIQNELSVDHSDPVILNVLYGPDDPTISPSYTYYRPGVNLSLSCHAASNPPAQYSWLIDGNIQQHTQELFISNITEKNSGLYTCQANNSASGHSRTTVKTITVSAELPKPSISSNNSKPVEDKDAVAFTCEPEAQNTTYLWWVNGQSLPVSPRLQLSNGNRTLTLFNVTRNDARAYVCGIQNSVSANRSDPVTLDVLYGPDTPIISPPDSSYLSGANLNLSCHSASNPSPQYSWRINGIPQQHTQVLFIAKITPNNNGTYACFVSNLATGRNNSIVKSITVSASGTSPGLSAGATVGIMIGVLVGVALI
# modifications: full-length His tag
# notes: histidine-tagged full length CEA protein, used as control, formulated with CpG
# Key:
# Type in all cases: in vivo, C57BL/6 mice
# [1] = tested on: CD4, CD8, CD49d and B220 cells in the spleen and maxillary lymph nodes; test: Lymphocyte depletion in lymphoid organs, phenotyping of spleen and maxillary lymph nodes (Example 2, Table 2); settings: 14 days after onset of treatment, ATG 20 mg/kg single ip, Fludarabine 100 mg/kg/day ip 6 days
# Procedure: (§1) Blood sampling was performed by tail bleeding.
# (§2) Blood, lymph node cells and splenocytes were processed according to previously described methods (28, 29) for numeration and flow cytometry assisted phenotyping. Blood lymphocytes were counted using Trypan blue.
# The blood compartment represents only 1 to 2% on the total body lymphoid mass. The Inventors therefore monitored lymphocyte depletion by phenotyping for T and B cells, spleen and lymph nodes 14 days after onset of immunosuppression. Compared to controls (PBS and NRS) Fludarabine- and ATG-based immunosuppressive therapies induced modifications of lymphocyte proportion in lymphoid organs (Table 2).
# Peripheral lymphoid organs were sampled 14 days after onset of immunosuppressive treatment administration. Values presented are the percentages of CD4, CD8, CD49d and B220 cells observed in the spleen and maxillary lymph nodes, and the absolute values of CD4, CD8, CD49d and B220 by reference to the number of lymphocytes contained in each organ.
# [2] = tested on: peripheral blood lymphocytes (CD4+, CD8+, CD49d+ and B220+); test: Peripheral blood lymphocyte depletion induced by immunosuppressive treatment (Example 2); settings: after onset of treatment; Fludarabine 100 mg/kg/day ip for 6 days
# Procedure: Kinetic of the number of lymphocytes (CD4+, CD8+, CD49d+ and B220+) in peripheral blood following i.p. injection of 100 mg/kg/day Fludarabine for 6 days or following a single i.p. injection of 20 mg/kg ATG. Controls are injected with PBS or with 20 mg/kg of normal rabbit serum (NRS)
# as §1, §2
# Mouse ATG were prepared by injecting a rabbit sc with 5×10^8 thymocytes sampled on 6-weeks old C57BL/6 mice. This immunization was boosted 14 days later with an iv injection of identical material. Seven days later the animal was bled and serum IgG were purified on immobilized protein G column (Pierce). Purity was controlled by SDS PAGE analysis and quantity was estimated by the Bradford method with known concentration rabbit IgG as standards. Rabbit ATG was used at a concentration of 20 mg/kg with a single injection. As a control, normal rabbit serum was used.
# Fludarabine (Sigma) was used at a concentration of 100 mg/kg/day for 6 days. Monoclonal antibodies: anti-CD4-APC, anti-CD8-PerCP, anti-B220-FITC and anti-CD49d (Pan NK)-PE were obtained from BD Biosciences.
# [3] = tested on: CD4, CD8 and B220 cells in the spleen and lymph nodes; test: Lymphocyte depletion in lymphoid organs, phenotyping of spleen and lymph nodes (Example 1, Table 1); settings: 10 days after onset of immunosuppressive treatment; ATG 20 mg/kg single ip, fludarabine 200 mg/kg/day ip 6 days
# Procedure: as §1
# Blood, lymph node cells and splenocytes were processed according to previously described methods (28, 29) for numeration and flow cytometry assited phenotyping. Blood lymphocytes were counted using Türk blue.
# The blood compartment represents only 1 to 2% on the total body lymphoid mass. Lymphocyte depletion by phenotyping for T and B cells, spleen and lymph nodes 10 days after onset of immunosuppression has been monitored. Similarly to the situation in the blood compartment, ATG- and fludarabine-based immunosuppressive therapies induced a depletion of the T lymphocyte pool in lymphoid organs (Table 1).
# Peripheral lymphoid organs were sampled 10 days after onset of immunosuppressive treatment administration. Values presented are the percentages of CD4, CD8 and B220 cells observed in the spleen and lymph nodes.
# MCa32A cells = test: Tumor rejection model, MC38 murine colon adenocarcinoma cells expressing CEA (Example 2)
# Procedure: as §1
# MC32aCEA cells expressing CEA protein were obtained from Pr. W. Zimermann (LTI, Munich). These cells are derived from the MC38 murine colon adenocarcinoma (48).
# [4] = tested on: CEA-specific IFN-γ producing CD8+ cells; test: γ-IFN ELISpot assay of CEA-specific CD8+ cells after immunization (Example 2)
# Procedure: […] Seven days after last immunization, CEA-specific IFN-γ producing CD8+ cells were detected by ex vivo ELISpot assay using 1 μg/ml CEA pepscan. Data are expressed as the median numbers of γ-IFN spot forming colonies, SFC (n=3).
# ATG- or Fludarabine-based immunosuppressive treatments were applied to animals 7 days prior to prime boost immunization with recombinant proteins. Immunizations performed iv with equimolar amounts of indicated recombinant proteins (50 μg for CyaAs, 19.2 μg for His-tag CEA) in presence of 10 μg CpG, were boosted id 7 days later with 10 μg of similar material (3.8 μg for His-tag CEA) and 2 μg of CpG. Seven days after last immunization, CEA-specific IFN-γ producing CD8+ cells were detected by ex vivo ELISpot assay using 1 μg/ml CEA pepscan. Data are expressed as the median numbers of γ-IFN spot forming colonies, SFC (n=2).
# Multiscreen filtration plates (96 wells; Millipore, France) were coated with 4 μg/ml of rat anti-mouse gamma interferon (IFN-γ) antibody (clone R4-6A2; PharMingen, San Diego, Calif.), overnight at room temperature. Spleen cells from immunized mice were added to the wells and incubated for 20 h with or without CEA pepscan at 1 μg/ml. […] The number of γ-IFN producing cells was determined by counting the number of spot-forming colonies (SFC) in each well (C.T.L., Germany), and the results were expressed as number of SFC per 1×10^6 splenocytes (20).
molecule,measurement,setting,value
Nc1nc(F)nc2c1ncn2[C@@H]1O[C@H](CO)[C@@H](O)[C@@H]1O [Fludarabine],"B220+ absolute value, Spleen",[1],8 10^6 cells/ml
same,"B220+ percentage, Spleen",[1],42.4%
same,"CD4+ absolute value, Spleen",[1],3.8 10^6 cells/ml
same,"CD4+ percentage, Spleen",[1],20.4%
same,"CD8+ absolute value, Spleen",[1],2.5 10^6 cells/ml
same,"CD8+ percentage, Spleen",[1],13.4%
same,"CD49d+ absolute value, Spleen",[1],1.4 10^6 cells/ml
same,"CD49d+ percentage, Spleen",[1],7.5%
same,"B220+ absolute value, Lymph nodes",[1]; maxillary lymph nodes,0.3 10^6 cells/ml
same,"B220+ percentage, Lymph nodes",[1]; maxillary lymph nodes,30.2%
same,"CD4+ absolute value, Lymph nodes",[1]; maxillary lymph nodes,0.3 10^6 cells/ml
same,"CD4+ percentage, Lymph nodes",[1]; maxillary lymph nodes,31.3%
same,"CD8+ absolute value, Lymph nodes",[1]; maxillary lymph nodes,0.3 10^6 cells/ml
same,"CD8+ percentage, Lymph nodes",[1]; maxillary lymph nodes,35.3%
same,"CD49d+ absolute value, Lymph nodes",[1]; maxillary lymph nodes,0.03 10^6 cells/ml
same,"CD49d+ percentage, Lymph nodes",[1]; maxillary lymph nodes,3.8%
same,time for T cell values to return to control groups,[2],≤ 7 days
same,"percentage of B220+ cells, Lymph nodes",[3],32.4%
same,"percentage of B220+ cells, Spleen",[3],54.3%
same,"percentage of CD4+ cells, Lymph nodes",[3],37.8%
same,"percentage of CD4+ cells, Spleen",[3],21.9%
same,"percentage of CD8+ cells, Lymph nodes",[3],20.8%
same,"percentage of CD8+ cells, Spleen",[3],5.3%
same,size of tumors relative to the other groups (smaller),MCa32A cells; at the time of CyaA-based immunotherapy,20 times
same,survival median of mock-treated animals,"MCa32A cells; immunosuppressive treatment 3 days after tumor inoculation, no CEA immunization",21 to 25 days
B1,CEA-specific cellular immune responses upon immunization after immunosuppressive treatment,"[4]; compared with CyaA-CEAA3B3 + CpG, prime-boost with CpG",Lower CEA-specific cellular immune responses were detected
same,cellular immune response characterized by γ-IFN secretion,"[4]; one single iv administration, with CpG adjuvant, no immunosuppression","neither CyaAΔ-CEAA3B3 nor His-tag-CEA protein formulated with an adjuvant such as CpG, were able to mount a cellular immune response"
